The molecules below were run on Aβ42 (assay: Cellular assay for inhibition of Aβ1-42 production (H4 APP751 SWE clone 8.20)). Details: 19 h, H4 APP751 SWE clone 8.20 cells, 19 h incubation; read-out: Activity Rating (Aβ42 cellular IC50), class symbol.
Type: cell-based
Summary of the method: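 Secreted peptide was quantified with a two-antibody homogeneous format combining Wallac-labelled 565, which recognises the Aβ42 end, and APC-labelled 26D6 at 0.8 and 75 ng/well respectively. Antibodies were diluted in 40 mM Tris-HCl, pH 7.4, 0.2% BSA and left overnight at 4 °C after a 19 h compound incubation.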

Structure (SMILES)	IC50 [nM]
N#Cc1ccc2cc1OCCCCCc1nc(nc3c1CCC3c1ccccc1)N2 (centres unmarked) [Example 38B, 7-cyano-18-phenyl-10,11,12,13,14,16,17,18-octahydro-15,2-(azeno)-8,4-(metheno)cyclopenta[h][1,10,12]oxadiazacycloheptadecine]	100 to 1000
Cc1ncnn1-c1ccc2cc1OC/C=C\CN(C)c1nc(nc3c1CCC3c1ccccc1)N2 (centres unmarked) [Example 41B, (11Z)-14-methyl-7-(5-methyl-1H-1,2,4-triazol-1-yl)-18-phenyl-10,13,14,16,17,18-hexahydro-15,2-(azeno)-8,4-(metheno)cyclopenta[h][1,6,10,12]oxatriazacycloheptadecine]	10 to 100

The remaining lines, values ahead:

IC50 [nM]	Structure (SMILES)
< 10	Cc1ncn(-c2ccc3cc2OC/C=C\CN(C)c2nc(nc4c2CCC4c2ccccc2)N3)n1 (centres unmarked) [Example 44A, (11Z)-14-methyl-7-(3-methyl-1H-1,2,4-triazol-1-yl)-18-phenyl-10,13,14,16,17,18-hexahydro-15,2-(azeno)-8,4-(metheno)cyclopenta[h][1,6,10,12]oxatriazacycloheptadecine]
10 to 100	Cc1ncnn1-c1ccc2cc1OCCCCNc1nc(nc3c1CCC3c1ccccc1)N2 (centres unmarked) [Example 47B, 7-(5-methyl-1H-1,2,4-triazol-1-yl)-18-phenyl-10,11,12,13,14,16,17,18-octahydro-15,2-(azeno)-8,4-(metheno)cyclopenta[h][1,6,10,12]oxatriazacycloheptadecine]
< 10	Cc1ncnn1-c1ccc2cc1OCCCCN(C)c1nc(nc3c1CCC3c1ccccc1)N2 (centres unmarked) [Example 48A, 14-methyl-7-(5-methyl-1H-1,2,4-triazol-1-yl)-18-phenyl-10,11,12,13,14,16,17,18-octahydro-15,2-(azeno)-8,4-(metheno)cyclopenta[h][1,6,10,12]oxatriazacycloheptadecine]
10 to 100	Cc1ncn(-c2ccc3cc2OCCCCNc2nc(nc4c2CCC4c2ccccc2)N3)n1 (centres unmarked) [Example 49B, 7-(3-methyl-1H-1,2,4-triazol-1-yl)-18-phenyl-10,11,12,13,14,16,17,18-octahydro-15,2-(azeno)-8,4-(metheno)cyclopenta[h][1,6,10,12]oxatriazacycloheptadecine]

Same assay, conditions: 19 h, H4 APP751 SWE clone 8.20 cells, 19 h incubation; unit inferred; read-out: Activity Rating (Aβ42 cellular IC50), numeric value

IC50 [nM]	Structure (SMILES)
30	Cc1ncn(-c2ccc3cc2OC/C=C\CN(C)c2nc(nc4c2CCC4c2ccccc2)N3)n1 (centres unmarked) [Example 44B, (11Z)-14-methyl-7-(3-methyl-1H-1,2,4-triazol-1-yl)-18-phenyl-10,13,14,16,17,18-hexahydro-15,2-(azeno)-8,4-(metheno)cyclopenta[h][1,6,10,12]oxatriazacycloheptadecine]
5.6	Cc1ncnn1-c1ccc2cc1OCCCCNc1nc(nc3c1CCC3c1ccccc1)N2 (centres unmarked) [Example 47A, 7-(5-methyl-1H-1,2,4-triazol-1-yl)-18-phenyl-10,11,12,13,14,16,17,18-octahydro-15,2-(azeno)-8,4-(metheno)cyclopenta[h][1,6,10,12]oxatriazacycloheptadecine]
88	Cc1ncnn1-c1ccc2cc1OCCCCN(C)c1nc(nc3c1CCC3c1ccccc1)N2 (centres unmarked) [Example 48B, 14-methyl-7-(5-methyl-1H-1,2,4-triazol-1-yl)-18-phenyl-10,11,12,13,14,16,17,18-octahydro-15,2-(azeno)-8,4-(metheno)cyclopenta[h][1,6,10,12]oxatriazacycloheptadecine]

Same assay, conditions: H4 APP751 SWE clone 8.20 cells, 19 h incubation; read-out: Activity Rating (Aβ42 cellular IC50), class symbol

Structure (SMILES)	IC50 [nM]
N#Cc1ccc2cc1OC/C=C/CCc1nc(nc3c1CCC3c1ccccc1)N2 (centres unmarked) [Example 37B, (11E)-7-cyano-18-phenyl-10,13,14,16,17,18-hexahydro-15,2-(azeno)-8,4-(metheno)cyclopenta[h][1,10,12]oxadiazacycloheptadecine]	10 to 100
Cc1ncn(-c2ccc3cc2OCC=CCNc2nc(nc4c2CCC4c2ccccc2)N3)n1 (centres unmarked) [Example 39B, (11Z)-7-(3-methyl-1H-1,2,4-triazol-1-yl)-18-phenyl-10,13,14,16,17,18-hexahydro-15,2-(azeno)-8,4-(metheno)cyclopenta[h][1,6,10,12]oxatriazacycloheptadecine]	10 to 100
Cc1ncnn1-c1ccc2cc1OCC=CCNc1nc(nc3c1CCC3c1ccccc1)N2 (centres unmarked) [Example 42B, (11Z)-7-(5-methyl-1H-1,2,4-triazol-1-yl)-18-phenyl-10,13,14,16,17,18-hexahydro-15,2-(azeno)-8,4-(metheno)cyclopenta[h][1,6,10,12]oxatriazacycloheptadecine]	10 to 100
Cc1ncnn1-c1ccc2cc1OCC=CCNc1nc(nc3c1CCC3c1ccccc1)N2 (centres unmarked) [Example 43A, (11E)-7-(5-methyl-1H-1,2,4-triazol-1-yl)-18-phenyl-10,13,14,16,17,18-hexahydro-15,2-(azeno)-8,4-(metheno)cyclopenta[h][1,6,10,12]oxatriazacycloheptadecine]	< 10

The next lines start with the values.

IC50 [nM]	Structure (SMILES)
10 to 100	Cc1ncn(-c2ccc3cc2OC/C=C\CNc2nc(nc4c2CCC4c2ccc(F)cc2)N3)n1 (centres unmarked) [Example 45B, (11Z)-18-(4-fluorophenyl)-7-(3-methyl-1H-1,2,4-triazol-1-yl)-10,13,14,16,17,18-hexahydro-15,2-(azeno)-8,4-(metheno)cyclopenta[h][1,6,10,12]oxatriazacycloheptadecine]
100 to 1000	Cc1ncn(-c2ccc3cc2OCC=CCNc2nc(nc4c2CCC4c2ccc(F)cc2)N3)n1 (centres unmarked) [Example 46B, (11E)-18-(4-fluorophenyl)-7-(3-methyl-1H-1,2,4-triazol-1-yl)-10,13,14,16,17,18-hexahydro-15,2-(azeno)-8,4-(metheno)cyclopenta[h][1,6,10,12]oxatriazacycloheptadecine]
< 10	Cc1ncn(-c2ccc3cc2OCCCCNc2nc(nc4c2CCC4c2ccccc2)N3)n1 (centres unmarked) [Example 49A, 7-(3-methyl-1H-1,2,4-triazol-1-yl)-18-phenyl-10,11,12,13,14,16,17,18-octahydro-15,2-(azeno)-8,4-(metheno)cyclopenta[h][1,6,10,12]oxatriazacycloheptadecine]
< 10	Cc1ncn(-c2ccc3cc2OCCCCN(C)c2nc(nc4c2CCC4c2ccccc2)N3)n1 (centres unmarked) [Example 50A, 14-methyl-7-(3-methyl-1H-1,2,4-triazol-1-yl)-18-phenyl-10,11,12,13,14,16,17,18-octahydro-15,2-(azeno)-8,4-(metheno)cyclopenta[h][1,6,10,12]oxatriazacycloheptadecine]

Same assay, conditions: H4 APP751 SWE clone 8.20 cells, 19 h incubation; unit inferred; read-out: Activity Rating (Aβ42 cellular IC50), numeric value

IC50 [nM]	Structure (SMILES)
4	Cc1ncn(-c2ccc3cc2OCC=CCNc2nc(nc4c2CCC4c2ccccc2)N3)n1 (centres unmarked) [Example 39A, (11Z)-7-(3-methyl-1H-1,2,4-triazol-1-yl)-18-phenyl-10,13,14,16,17,18-hexahydro-15,2-(azeno)-8,4-(metheno)cyclopenta[h][1,6,10,12]oxatriazacycloheptadecine]
6.6	Cc1ncnn1-c1ccc2cc1OCC=CCNc1nc(nc3c1CCC3c1ccccc1)N2 (centres unmarked) [Example 42A, (11Z)-7-(5-methyl-1H-1,2,4-triazol-1-yl)-18-phenyl-10,13,14,16,17,18-hexahydro-15,2-(azeno)-8,4-(metheno)cyclopenta[h][1,6,10,12]oxatriazacycloheptadecine]
53	Cc1ncnn1-c1ccc2cc1OCC=CCNc1nc(nc3c1CCC3c1ccccc1)N2 (centres unmarked) [Example 43B, (11E)-7-(5-methyl-1H-1,2,4-triazol-1-yl)-18-phenyl-10,13,14,16,17,18-hexahydro-15,2-(azeno)-8,4-(metheno)cyclopenta[h][1,6,10,12]oxatriazacycloheptadecine]

Reference: patent US8637523B2, “Compounds for the reduction of beta-amyloid production” (Bristol-Myers Squibb Company, priority 2010, dated 2014)
